Test results taken from US9980943B2, “Methods of treating muscular dystrophy” (BOARD OF REGENTS OF THE NEVADA SYSTEM OF HIGHER EDUCATION, …, priority 2013, dated 2018).

Legend:
Format in all cases: cell-based, mouse
[1] = system: β-galactosidase in CMV-LacZ C2C12 myotubes; assay: CMV-LacZ secondary screen in C2C12 myotubes (β-Gal stabilizing assay); conditions: for CMV-LACZ in Myotubes, signal relative to DMSO: C2C12 CMV-LacZ myotubes, fold relative to DMSO; for CMV-LACZ in Myotubes (β-galactosidase activity relative to DMSO): CMV-LacZ C2C12 myotubes, 96-well format
Outline: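 β-Gal level was the read-out, measured in a clonal C2C12 line expressing LacZ from a CMV promoter. Dose-response curves used six concentrations, 0.5 μM up to 40 μM, with duplicate points.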

[2] = system: α7 integrin (LacZ reporter in α7+/LacZ myotubes); assay: Myotube α7 integrin FDG assay (Burkin assay in myotubes, 96-well); conditions: myotubes
[3] = system: α7 integrin (LacZ reporter in α7βgal+/− myoblasts); assay: Myoblast α7+/LacZ integrin FDG assay (Burkin assay in myoblasts, 96-well); conditions: α7+/LacZ myoblasts, 96-well

Structure (SMILES)	CMV-LACZ in Myotubes, signal relative to DMSO ([1]; 5 uM)	CMV-LACZ in Myotubes, signal relative to DMSO ([1]; 10 uM)	CMV-LACZ in Myotubes, signal relative to DMSO ([1]; 20 uM)	CMV-LACZ in Myotubes, signal relative to DMSO ([1]; 40 uM)	Burkin Assay in Myotubes (signal relative to DMSO) ([2]; 0.5 uM)	Burkin Assay in Myotubes (signal relative to DMSO) ([2]; 1 uM)	Burkin Assay in Myotubes (signal relative to DMSO) ([2]; 5 uM)	Burkin Assay in Myotubes (signal relative to DMSO) ([2]; 10 uM)	Burkin Assay in Myotubes (signal relative to DMSO) ([2]; 20 uM)	Burkin Assay in Myotubes (signal relative to DMSO) ([2]; 40 uM)	Burkin Assay in Myoblasts, value relative to DMSO ([3]; 0.5 uM)	Burkin Assay in Myoblasts, value relative to DMSO ([3]; 1 uM)	Burkin Assay in Myoblasts, value relative to DMSO ([3]; 5 uM)	Burkin Assay in Myoblasts, value relative to DMSO ([3]; 10 uM)	Burkin Assay in Myoblasts, value relative to DMSO ([3]; 20 uM)	Burkin Assay in Myoblasts, value relative to DMSO ([3]; 40 uM)	CMV-LACZ in Myotubes (β-galactosidase activity relative to DMSO) ([1]; 5 uM)	CMV-LACZ in Myotubes (β-galactosidase activity relative to DMSO) ([1]; 10 uM)	CMV-LACZ in Myotubes (β-galactosidase activity relative to DMSO) ([1]; 20 uM)	CMV-LACZ in Myotubes (β-galactosidase activity relative to DMSO) ([1]; 40 uM)	further results
Cc1cc(NC(=O)CN2C(=O)/C(=C/c3ccccc3F)SC2=S)no1 [MLS001219159-01]	0.9354	0.9316	0.9636	1.023	0.861	0.9965	0.807	1.064	0.9474	0.9507	0.9597	1.059	0.9161	0.9644	0.9199	0.952					
Cc1cc(C(=O)Nc2cccc3ccccc23)c(C)o1 [MLS001219345-01]	1.188	0.8631	1.0075	1.0255																	Burkin Assay in Myotubes, α7 integrin LacZ reporter signal relative to DMSO ([2]; 0.5 uM): 0.9416; Burkin Assay in Myotubes, α7 integrin LacZ reporter signal relative to DMSO ([2]; 1 uM): 0.9889; Burkin Assay in Myotubes, α7 integrin LacZ reporter signal relative to DMSO ([2]; 5 uM): 1.078; Burkin Assay in Myotubes, α7 integrin LacZ reporter signal relative to DMSO ([2]; 10 uM): 1.0424; Burkin Assay in Myotubes, α7 integrin LacZ reporter signal relative to DMSO ([2]; 20 uM): 0.7146; Burkin Assay in Myotubes, α7 integrin LacZ reporter signal relative to DMSO ([2]; 40 uM): 0.9232; Burkin Assay in Myoblasts, signal relative to DMSO ([3]; 0.5 uM): 0.3027; Burkin Assay in Myoblasts, signal relative to DMSO ([3]; 1 uM): 1.119; Burkin Assay in Myoblasts, signal relative to DMSO ([3]; 5 uM): 1.046; Burkin Assay in Myoblasts, signal relative to DMSO ([3]; 10 uM): 1.014; Burkin Assay in Myoblasts, signal relative to DMSO ([3]; 20 uM): 0.9807; Burkin Assay in Myoblasts, signal relative to DMSO ([3]; 40 uM): 0.9227
NC(=O)c1nsc(C(=O)N(c2ccccc2)C(C(=O)NCc2ccc(F)cc2)c2ccc(O)cc2)c1N (stereo not shown) [MLS001219621-01]					0.9394	0.8603	0.8883	0.8616	0.648	0.4537	0.8642	0.8063	0.7249	0.7542	0.7884	0.5423	0.9491	1.063	1.132	1.29	
COc1ccccc1N(C(=O)CNC(=O)c1ccco1)C(C(=O)NC1CCCCC1)c1ccncc1 (stereo not shown) [MLS001220669-01]	0.8274	0.7701	1.0114	1	0.9722	0.978	1.0117	1.038	1.003	1.011	1	0.9426	0.9016	0.9605	0.8701	0.7613					
Cc1cc(NC(=O)CCC(=O)N(Cc2cccnc2)C(C(=O)NC(C)(C)C)c2ccccc2Cl)no1 (stereo not shown) [MLS001220803-01]					0.9345	0.9703	1.18	1.075	1.0147	0.9622	0.9688	1.0343	0.8878	0.9511	0.9503	0.9906	1.115	1.064	1.091	1.05	
COc1ccc(N2CCCC2)c(NC(=O)c2ccc([N+](=O)[O-])o2)c1 [MLS001221619-01]					0.826	0.9557	0.944	1.012	0.8603	1.034	0.6855	0.7633	0.7367	0.6764	0.9648	0.8976	1.172	1.321	1.513	1.781	
Cc1ccc(S(=O)(=O)NC(C)C(=O)NC(C)c2cccs2)cc1 (stereo not shown) [MLS001221867-01]	0.9954	0.9834	1.0515	1.0745																	Burkin Assay in Myotubes, α7 integrin LacZ reporter signal relative to DMSO ([2]; 0.5 uM): 0.9728; Burkin Assay in Myotubes, α7 integrin LacZ reporter signal relative to DMSO ([2]; 1 uM): 0.9422; Burkin Assay in Myotubes, α7 integrin LacZ reporter signal relative to DMSO ([2]; 5 uM): 0.9593; Burkin Assay in Myotubes, α7 integrin LacZ reporter signal relative to DMSO ([2]; 10 uM): 0.9374; Burkin Assay in Myotubes, α7 integrin LacZ reporter signal relative to DMSO ([2]; 20 uM): 1.02; Burkin Assay in Myotubes, α7 integrin LacZ reporter signal relative to DMSO ([2]; 40 uM): 0.9915; Burkin Assay in Myoblasts, signal relative to DMSO ([3]; 0.5 uM): 1.001; Burkin Assay in Myoblasts, signal relative to DMSO ([3]; 1 uM): 1.024; Burkin Assay in Myoblasts, signal relative to DMSO ([3]; 5 uM): 0.9275; Burkin Assay in Myoblasts, signal relative to DMSO ([3]; 10 uM): 0.922; Burkin Assay in Myoblasts, signal relative to DMSO ([3]; 20 uM): 0.9616; Burkin Assay in Myoblasts, signal relative to DMSO ([3]; 40 uM): 0.8943
